≈ marks a conversion by molar mass, not a printed value.
What was measured:
Streptococcus pneumoniae [1] = test: (§1) In vivo efficacy against Strep. administration; assay type: functional
Streptococcus pyogenes = test: In vitro antibacterial activity against gram-positive organism Streptococcus pyogenes EES61; assay type: functional
[2] = In vivo efficacy against Pseudomonas aeruginosa 5007 after subcutaneous administration; assay type: functional; conditions: Pseudomonas aeruginosa, sc; read-out: ED50
[3] = molecular target: T1, DNA gyrase (Staphylococcus aureus) (UniProt P0A0K8+P20831); test: In vitro antibacterial activity against gram-positive organism Staphylococcus aureus ATCC 6538p; assay type: functional
[4] = In vitro antibacterial activity against gram-negative organism Pseudomonas aeruginosa DPHD-2862; assay type: functional; conditions: Pseudomonas aeruginosa; read-out: MIC
Pseudomonas aeruginosa = test: In vivo efficacy against Pseudomonas aeruginosa 5007 following p.o. administration.
[5] = molecular target: T2, DNA gyrase (Escherichia coli) (UniProt P0AES6+P0AES4); test: In vivo efficacy against Escherichia coli JUHL by subcutaneous administration; assay type: functional, organism-based; conditions: Escherichia coli K-12
[6] = molecular target: T1, DNA gyrase (Staphylococcus aureus); test: In vivo efficacy against Staphylococcus aureus NCTC-10649M after subcutaneous administration; assay type: functional, organism-based
[7] = molecular target: T2, DNA gyrase (Escherichia coli); conditions: Escherichia coli K-12
Description: Concentration which causes 50% of the gyrase (Escherichia coli H560)-mediated maximal DNA cleavage.

[8] = molecular target: T2, DNA gyrase (Escherichia coli); test: In vitro antibacterial against gram-negative organism Escherichia coli JUHL; assay type: functional; conditions: Escherichia coli K-12
[9] = molecular target: T2, DNA gyrase (Escherichia coli); test: In vitro antibacterial activity against gram-negative organism Klebsiella pneumoniae ATCC 8045; assay type: functional
[10] = molecular target: T2, DNA gyrase (Escherichia coli); test: In vitro antibacterial activity against gram-negative organism Prov. stuartii CMX-640; assay type: functional; conditions: Providencia stuartii
[11] = molecular target: T2, DNA gyrase (Escherichia coli); test: In vitro antibacterial activity against gram-negative organism […] ATCC 13048; assay type: functional; conditions: Enterobacter aerogenes
[12] = molecular target: T1, DNA gyrase (Staphylococcus aureus); test: In vitro antibacterial activity against gram-positive organism Staphylococcus aureus 1775; assay type: functional
[13] = molecular target: T1, DNA gyrase (Staphylococcus aureus); test: In vitro antibacterial activity against gram-positive organism Staphylococcus aureus NCTC-10649M; assay type: functional
Streptococcus pneumoniae [14] = test: as §1; assay type: functional; remark: listed apart in the source
[15] = In vitro antibacterial activity against gram-negative organism Pseudomonas aeruginosa 5007; assay type: functional; conditions: Pseudomonas aeruginosa; read-out: MIC
[16] = molecular target: T1, DNA gyrase (Staphylococcus aureus); test: In vivo efficacy against Staphylococcus aureus NCTC-10649M after oral administration; assay type: functional, organism-based
[17] = molecular target: T2, DNA gyrase (Escherichia coli); test: In vitro antibacterial activity against gram-positive organism Enterococcus faecium ATCC 8043; assay type: functional
[18] = molecular target: T2, DNA gyrase (Escherichia coli); test: In vivo efficacy against Escherichia coli JUHL after oral administration; assay type: functional, organism-based; conditions: Escherichia coli K-12
[19] = molecular target: T2, DNA gyrase (Escherichia coli); test: In vitro antibacterial activity against gram-positive organism Streptococcus bovis A-5169; assay type: functional; conditions: Streptococcus equinus
Streptococcus pneumoniae [20] = test: as §1; assay type: functional; remark: listed apart in the source
Escherichia coli = test: In vivo efficacy against Escherichia coli JUHL by orally administered.; assay type: functional; conditions: po
Enterococcus faecalis = test: Inhibitory activity against enterococcus faecalis Van B; assay type: functional
Enterococcus faecium = test: Inhibitory activity against enterococcus faecium Van A; assay type: functional
Streptococcus pneumoniae [21] = test: In vivo efficacy against Strep. administered; assay type: functional
physchem = conditions: phosphate buffer, pH 7.4
Description: Aqueous solubility in pH 7.4 phosphate buffer (0.05 M) at 37 degree C

in vivo [22] = conditions: rat, plasma, po, 5 mg/kg
[23] = Maximum plasma concentration in rats after an oral dose of 5 mg/kg; conditions: rat
in vivo [24] = conditions: rat, po, 5 mg/kg
Description: Oral bioavailability in rat (dose 5 mg/kg)

[25] = Streptococcus pyogenes, read-out: MIC
[26] = Streptococcus pneumoniae, read-out: ED50

SMILES | MIC (Streptococcus pyogenes; [25]) | MIC [3] | MIC [4] | ED50 (Pseudomonas aeruginosa) | ED50 [5] | ED50 [6] | MIC [8] | MIC [9] | MIC [10] | MIC [11] | MIC [12] | MIC [13] | MIC [15] | ED50 [16] | MIC [17] | ED50 [18] | MIC [19] | ED50 [2] | CC50 [7] | ED50 (Streptococcus pneumoniae [14]) | further results
Cc1c(N2CCC(N(C)C)C2)c(F)cn2c(=O)c(C(=O)O)cc(C3CC3)c12 (stereo unspecified) | 0.1 mg/L (≈ 0.268 µM) | 0.05 mg/L (≈ 0.134 µM) | 12.5 mg/L (≈ 33.5 µM) | – | 1.9 mg/kg | 4.7 mg/kg | 0.02 mg/L (≈ 0.0536 µM) | 0.02 mg/L (≈ 0.0536 µM) | 3.1 mg/L (≈ 8.3 µM) | 0.1 mg/L (≈ 0.268 µM) | 0.78 mg/L (≈ 2.09 µM) | 0.05 mg/L (≈ 0.134 µM) | 0.39 mg/L (≈ 1.04 µM) | 25 mg/kg | 0.1 mg/L (≈ 0.268 µM) | – | 0.39 mg/L (≈ 1.04 µM) | – | – | 44.1 mg/kg | ED50 (Escherichia coli): > 10 mg/kg; ED50 (Streptococcus pneumoniae [20]): > 25 mg/kg; MIC (Enterococcus faecalis): 0.12 mg/L (≈ 0.321 µM); MIC (Enterococcus faecium): 1 mg/L (≈ 2.68 µM)
Cc1c(N2C[C@@H](C)N[C@@H](C)C2)c(F)cn2c(=O)c(C(=O)O)cc(C3CC3)c12 | 0.39 mg/L (≈ 1.04 µM) | 0.1 mg/L (≈ 0.268 µM) | 12.5 mg/L (≈ 33.5 µM) | 12.7 mg/kg | 1.3 mg/kg | 4.4 mg/kg | 0.02 mg/L (≈ 0.0536 µM) | 0.02 mg/L (≈ 0.0536 µM) | 3.1 mg/L (≈ 8.3 µM) | 0.1 mg/L (≈ 0.268 µM) | 6.2 mg/L (≈ 16.6 µM) | 0.1 mg/L (≈ 0.268 µM) | 1.56 mg/L (≈ 4.18 µM) | 4.8 mg/kg | 0.39 mg/L (≈ 1.04 µM) | 2.1 mg/kg | 0.78 mg/L (≈ 2.09 µM) | > 8 mg/kg | 1.8 mg/L (≈ 4.82 µM) | 49.4 mg/kg | ED50 (Streptococcus pneumoniae [21]): > 8 mg/kg
CC(NC(=O)C(C)NC1CCN(c2nc3c(-c4ccc(F)cc4F)cc(C(=O)O)c(=O)n3cc2F)C1)C(=O)O (stereo unspecified) | – | – | – | 68.8 mg/kg | < 2.5 mg/kg | 2.8 mg/kg | – | – | – | – | – | – | – | 3 mg/kg | – | 14.3 mg/kg | – | 14.8 mg/kg | – | 49.7 mg/kg | solubility (physchem): 1 mg/mL (≈ 1830 µM); ED50 (Streptococcus pneumoniae [14]; [26]): 140 mg/kg

The next lines start with results.

MIC (Streptococcus pyogenes; [25]) | MIC [3] | MIC [4] | ED50 (Pseudomonas aeruginosa) | ED50 [5] | ED50 [6] | MIC [8] | MIC [9] | MIC [10] | MIC [11] | MIC [12] | MIC [13] | MIC [15] | ED50 [16] | MIC [17] | ED50 [18] | MIC [19] | SMILES | ED50 [2] | CC50 [7] | ED50 (Streptococcus pneumoniae [14]) | further results
0.02 mg/L (≈ 0.0579 µM) | 0.01 mg/L (≈ 0.029 µM) | 0.78 mg/L (≈ 2.26 µM) | 4.6 mg/kg | 0.4 mg/kg | 1 mg/kg | 0.002 mg/L (≈ 0.00579 µM) | 0.002 mg/L (≈ 0.00579 µM) | 0.2 mg/L (≈ 0.579 µM) | 0.005 mg/L (≈ 0.0145 µM) | 1.56 mg/L (≈ 4.52 µM) | 0.01 mg/L (≈ 0.029 µM) | 0.05 mg/L (≈ 0.145 µM) | 4.1 mg/kg | 0.02 mg/L (≈ 0.0579 µM) | < 0.3 mg/kg | 0.02 mg/L (≈ 0.0579 µM) | Cc1c(N2CCC(N)C2)c(F)cn2c(=O)c(C(=O)O)cc(C3CC3)c12 (stereo unspecified) | 0.5 mg/kg | 0.05 mg/L (≈ 0.145 µM) | – | ED50 (Streptococcus pneumoniae [1]): 6.2 mg/kg; ED50 (Streptococcus pneumoniae [14]; [26]): 12.5 mg/kg
0.39 mg/L (≈ 1.07 µM) | 0.2 mg/L (≈ 0.547 µM) | 6.2 mg/L (≈ 16.9 µM) | 17 mg/kg | 1 mg/kg | 1.6 mg/kg | 0.05 mg/L (≈ 0.137 µM) | 0.05 mg/L (≈ 0.137 µM) | 3.1 mg/L (≈ 8.47 µM) | 0.1 mg/L (≈ 0.273 µM) | 6.2 mg/L (≈ 16.9 µM) | 0.2 mg/L (≈ 0.547 µM) | 0.39 mg/L (≈ 1.07 µM) | 5.7 mg/kg | 0.39 mg/L (≈ 1.07 µM) | 5.6 mg/kg | 0.78 mg/L (≈ 2.13 µM) | NC1CCN(c2c(F)cn3c(=O)c(C(=O)O)cc(C4CC4)c3c2Cl)C1 (stereo unspecified) | 3.3 mg/kg | 0.31 mg/L (≈ 0.847 µM) | 11.1 mg/kg | ED50 (Streptococcus pneumoniae [20]): 8.5 mg/kg
– | – | 3.1 mg/L (≈ 8.04 µM) | – | – | – | – | – | – | – | – | – | 0.2 mg/L (≈ 0.519 µM) | – | – | – | – | Cc1c(N2C[C@@H]3CCCN[C@@H]3C2)c(F)cn2c(=O)c(C(=O)O)cc(C3CC3)c12 (stereo in doubt; (S,S)45n) | > 8 mg/kg | – | 3.6 mg/kg | MIC (Streptococcus pyogenes): 0.05 mg/L (≈ 0.13 µM); ED50 (Streptococcus pneumoniae [21]; [26]): 2.2 mg/kg
0.05 mg/L (≈ 0.139 µM) | 0.02 mg/L (≈ 0.0556 µM) | 1.56 mg/L (≈ 4.34 µM) | 7.2 mg/kg | 0.7 mg/kg | 0.9 mg/kg | 0.005 mg/L (≈ 0.0139 µM) | 0.005 mg/L (≈ 0.0139 µM) | 0.39 mg/L (≈ 1.09 µM) | 0.02 mg/L (≈ 0.0556 µM) | 1.56 mg/L (≈ 4.34 µM) | 0.02 mg/L (≈ 0.0556 µM) | 0.2 mg/L (≈ 0.556 µM) | < 3.1 mg/kg | 0.1 mg/L (≈ 0.278 µM) | – | 0.1 mg/L (≈ 0.278 µM) | CNC1CCN(c2c(F)cn3c(=O)c(C(=O)O)cc(C4CC4)c3c2C)C1 (stereo unspecified) | 2.8 mg/kg | 0.08 mg/L (≈ 0.223 µM) | – | ED50 (Escherichia coli): 1.1 mg/kg; MIC (Enterococcus faecalis): 0.06 mg/L (≈ 0.167 µM); MIC (Enterococcus faecium): 0.5 mg/L (≈ 1.39 µM)
0.05 mg/L (≈ 0.145 µM) | 0.01 mg/L (≈ 0.029 µM) | 1.56 mg/L (≈ 4.52 µM) | 6.2 mg/kg | 0.3 mg/kg | 0.9 mg/kg | 0.005 mg/L (≈ 0.0145 µM) | 0.005 mg/L (≈ 0.0145 µM) | 0.2 mg/L (≈ 0.579 µM) | 0.01 mg/L (≈ 0.029 µM) | 1.56 mg/L (≈ 4.52 µM) | 0.02 mg/L (≈ 0.0579 µM) | 0.05 mg/L (≈ 0.145 µM) | < 3.1 mg/kg | 0.05 mg/L (≈ 0.145 µM) | 1 mg/kg | 0.1 mg/L (≈ 0.29 µM) | Cc1c(N2CC[C@@H](N)C2)c(F)cn2c(=O)c(C(=O)O)cc(C3CC3)c12 | 2.4 mg/kg | 0.15 mg/L (≈ 0.434 µM) | – | half-life (in vivo [22]): 1.1 h; Cmax [23]: 0.08 µg/mL; bioavailability (in vivo [24]): 10%
